{
  "source": "patent US5055613A",
  "about": "“Metabolites of pentanedioic acid derivatives” (G. D. Searle & Co., priority 1988, dated 1991)",
  "key": {"fed hepatocytes [1]": {"tested_on": "fed hepatocytes", "assay": "Fatty acid and cholesterol synthesis in isolated fed hepatocytes", "type": "cell-based, rat", "conditions": "0.5 mM; for Cholesterol Synthesis: No Addition 0.013 ± 0.002; for Fatty Acid Synthesis: No Addition 0.024 ± 0.004", "description": "(§1) Hepatocytes are prepared from ad lib fed rats or 8-hour fasted rats by the method of Berry and Friend (1969) with minor modifications (McCune and Harris, 1979 J. Biol. Chem. 254,10095-10101.) Lean female rats (200-300 g) are ad lib fed and on a 8:00 a.m.-8:00 p.m. light cycle. The cells are isolated between 9:00-10:00 a.m., to compensate for any diurnal rhythms such as glycogen depletion.\n(§2) The cells are suspended in 2 mls of Krebs-Henseleit buffer supplemented with 2% BSA (essentially fatty acid free and dialyzed) under an atmosphere of 95% O2, 5% CO2 in stoppered 25 ml Erlenmeyer flasks. Incubations were conducted in a shaking water bath at 37° C. for appropriate times. Cells for fatty acid and cholesterol synthesis were treated with […] of H2 O(10mCi/ml) after 30 minutes of pre-incubation and stopped at 60 minutes.\nDetermination of cholesterol and fatty acid synthesis: The rate of fatty acid synthesis and cholesterol synthesis, expressed as moles of acetate equivalents/g wet weight of hepatocytes are determined by the incorporation of H2 O into total lipid, and extracted by the methods of Kates (1972 Tech. of Lipidology, 349, 363) and Harris (1975 Arch. Biochem. Biophys. 169, 168-180). Calculations are done according to Jungas (1968 Biochemistry 7, 3708-3717).\n(§3) Various compounds of the present invention were added to various concentrations to the hepatocytes and incubated for a short period of time. The effect of the compound was evaluated on cholesterol, fatty acid and glucose synthesis as well on other metabolites in the cell."}, "fed hepatocytes [2]": {"tested_on": "fed hepatocytes", "assay": "Glucose release, lactate and pyruvate (metabolites) in isolated fed hepatocytes", "type": "cell-based, rat", "conditions": "0.5 mM; for Pyruvate: No Addition 0.186 ± 0.040; for Lactate: No Addition 0.317 ± 0.095", "description": "as §1, §2\nAssay of metabolites: Cells are terminated with HClO4 (0.1 ml of 60%) and treated as described previously; McCune et al., 1981 Methods of Enzymology 72, 557-559). The metabolites in the extracts are measured spectrophotometrically by enzymatic methods, according to the methods of Hohorst et al. (1959 Biochem. Z., 332,18-46) for pyruvate and lactate, Williamson et al. (1962) for acetoacetate and beta-hydroxybutyrate, Slein (1965) for glucose, Michal and Bergmeyer (1974) for acetyl-CoA, McCune, et al. (ibid) for glycogen, Mollering and Gruber (1966 Anal. Biochem. 17, 369-379) for citrate, and Lambrecht and Trautschold (1974 Methods of Enzymatic Analysis, 2101 2109) for ATP.\nas §3"}},
  "data": [
    {"smiles": "CC(C)(CO)CCCCCCCCCCCC(O)(CC(=O)O)CC(=O)O", "note": "[Example 14, 3-(13-Hydroxy-12,12-dimethyl-tridecyl)-3-hydroxy glutaric acid]", "values": [
      {"measurement": "Cholesterol Synthesis", "setting": "fed hepatocytes [1]", "value": "0.004 ± 0.001", "unit": "mmoles/min/gm wet weight"},
      {"measurement": "Fatty Acid Synthesis", "setting": "fed hepatocytes [1]", "value": "0.003 ± 0.001", "unit": "mmoles/min/gm wet weight"},
      {"measurement": "Pyruvate", "setting": "fed hepatocytes [2]", "value": "0.185 ± 0.042 mmoles/ml incubation medium"},
      {"measurement": "Lactate", "setting": "fed hepatocytes [2]", "value": "0.400 ± 0.091 mmoles/ml incubation medium"}
    ]},
    {"smiles": "CC(C)(C)CCCCCCCCCCCC(O)(CC(=O)O)CC(=O)O", "note": "[Prior Art Compound, 3hydroxy-3-[12,12dimethyltridecyl]glutaric acid, reference compound]", "values": [
      {"measurement": "Cholesterol Synthesis", "setting": "fed hepatocytes [1]", "value": "0.010 ± 0.002", "unit": "mmoles/min/gm wet weight"},
      {"measurement": "Fatty Acid Synthesis", "setting": "fed hepatocytes [1]", "value": "0.010 ± 0.002", "unit": "mmoles/min/gm wet weight"},
      {"measurement": "Pyruvate", "setting": "fed hepatocytes [2]", "value": "0.110 ± 0.013 mmoles/ml incubation medium"},
      {"measurement": "Lactate", "setting": "fed hepatocytes [2]", "value": "0.383 ± 0.085 mmoles/ml incubation medium"}
    ]},
    {"smiles": "COC(=O)C(C)(C)CCCCCCCCCCCC(O)(CC(=O)O)CC(=O)O", "note": "[Example 10, 3-(12-Carbomethoxy-12-methyl-tridecyl)-3-hydroxy glutaric acid]", "values": [
      {"measurement": "Cholesterol Synthesis", "setting": "fed hepatocytes [1]", "value": "0.003 ± 0.001", "unit": "mmoles/min/gm wet weight"},
      {"measurement": "Fatty Acid Synthesis", "setting": "fed hepatocytes [1]", "value": "0.003 ± 0.001", "unit": "mmoles/min/gm wet weight"},
      {"measurement": "Pyruvate", "setting": "fed hepatocytes [2]", "value": "0.220 ± 0.031 mmoles/ml incubation medium"},
      {"measurement": "Lactate", "setting": "fed hepatocytes [2]", "value": "0.477 ± 0.084 mmoles/ml incubation medium"}
    ]},
    {"smiles": "CC(C)(CCCCCCCCCCCC(O)(CC(=O)O)CC(=O)O)C(=O)O", "note": "[Example 11, 3-(12-Carboxy-12-methyl-tridecyl)-3-hydroxy glutaric acid]", "values": [
      {"measurement": "Cholesterol Synthesis", "setting": "fed hepatocytes [1]", "value": "0.002 ± 0.001", "unit": "mmoles/min/gm wet weight"},
      {"measurement": "Fatty Acid Synthesis", "setting": "fed hepatocytes [1]", "value": "0.003 ± 0.001", "unit": "mmoles/min/gm wet weight"},
      {"measurement": "Pyruvate", "setting": "fed hepatocytes [2]", "value": "0.202 ± 0.028 mmoles/ml incubation medium"},
      {"measurement": "Lactate", "setting": "fed hepatocytes [2]", "value": "0.437 ± 0.104 mmoles/ml incubation medium"}
    ]}
  ]
}
